Experimental data as given in patent US11891601B2, “Method to enhance the transcription regulation of SUPT4H on genes containing repetitive nucleotide sequences” (National Yang-Ming University, priority 2018, dated 2024).

How the values were obtained:
[1] = test system: R-loops on (CAG)n-eGFP in ST14A cells; assay: RNA/DNA immunoprecipitation (DIP) assay of R-loops in ST14A cells expressing Q7-GFP or Q81-GFP; assay type: cell-based, rat; conditions: ST14A tet cells, tropolone 60 μM for 12 hours
Protocol: Yeast cells were collected after culturing in 2% galactose-containing medium for 12 hours, and then grinded by glass beads in the presence of 300 μl extraction buffer (10 mM Tris-HCl pH 8.0, 10 mM EDTA, 200 mM NaCl, 1% SDS, 2% Triton X-100, 25 units RNase inhibitor). The nucleic acid mixture was subjected to sonication (Bioruptor UCD-200) and extracted by phenol (pH 8.0). Purified chromatin DNA and RNA, with or without RNase H treatment for 90 minutes, was precipitated by monoclonal antibody S9.6 bound to protein G agarose beads. […] The RNA/DNA hybrid (R-loop) signal was analyzed by qPCR and the Quantitative-Comparative CT (MCT) program. In yeast experiments, a pair of primers (Primer-B F and Primer-B R) were used to quantify R-loop signal in the vicinity of CAG repeats and the primer set AMP was used as a control. […] For Hdh^Q7/Q7 and Hdh^Q111/Q111, mouse HTT DIP primer set was used to quantify R-loop signal of the CAG repeating region and Tubal a DIP primer set was included as a control. […]
Please refer to FIG. 6. […] A relative high signal of R-loops was detected in (CAG)7-eGFP, but this signal is not increased by tropolone. […] RNA was extracted and analyzed by real-time RT-qPCR to measure the quantity of (CAG)n-GFP, SUPT4H and snRNA U6. […]

human RNases H = conditions: Budihas et al, 2005; read-out: IC50, inhibition of enzymatic activity of human RNases H; cited from earlier work

In the case of O=c1cccccc1O [Tropolone], the “R-loop signal by DIP assay, (CAG)8i-eGFP” value ([1]; long repeat) is given as “significantly increased”, the “R-loop signal by DIP assay, (CAG)7-eGFP” value ([1]; short repeat (CAG)7-eGFP) is given as “not increased” and the IC50 (human RNases H) is given as 5.7 µM.
